System: Human peripheral blood mononuclear cells (PBMC)
Assay: TNFalfa-Release
Assay type: cell-based
Settings: inhibition of TNF-a secretion, PBMC pre-incubated 30 minutes, stimulated 18 hours with lipopolysaccharide
Protocol: Human peripheral blood mononuclear cells (PBMC) are Isolated from buffy coats. The blood is mixed with saline at a ratio of 1:1, and the PBMC is isolated by the use of Lymphoprep Tubes™ (Nycomed, Norway). The PBMC is suspended in RPMI1640 with 2% foetal calf serum (FCS), pen/strep and 2 mM L-glutamine at a concentration of 5×105 c/ml. The cells are pre-incubated for 30 minutes with the test compounds in 96 well tissue culture plates and stimulated for 18 hours with lipopolysaccharide 1 mg/ml (Sigma). The level of TNF-a is measured in the culture supernatant by enzyme immuno assays using primary and secondary biotinylated antibodies from R&D systems. Results are expressed as pIC50 values calculated from inhibition curves using as positive controls the secretion in LPS stimulated wells and as negative controls the secretion in unstimulated cells.

SMILES | IC50 [µM]
COc1ccc(CNC(=O)COc2c(C(=O)Cc3c(Cl)cncc3Cl)ccc(OC)c2OC)cc1 [Compound 213, 2-{6-[2-(3,5-Dichloro-pyridin-4-yl)-acetyl]-2,3-dimethoxy-phenoxy}-N-(4-methoxy-benzyl)-acetamide] | < 1
COc1ccc(C(=O)Cc2c(Cl)cncc2Cl)c(OCCc2ccc(C)cc2)c1OC [Compound 123, 2-(3,5-Dichloro-pyridin-4-yl)-1-[3,4-dimethoxy-2-(2-p-tolyl-ethoxy)-phenyl]-ethanone] | < 1
COc1ccc(C(=O)Cc2c(Cl)cncc2Cl)c(OCCCOc2ccccc2)c1OC [Compound 145, 2-(3,5-Dichloro-pyridin-4-yl)-1-[3,4-dimethoxy-2-(3-phenoxy-propoxy)-phenyl]-ethanone] | < 1
COc1ccc(C(=O)Cc2c(Cl)cncc2Cl)c(OCC(=O)NCc2ccc(Cl)cc2)c1OC [Compound 248, N-(4-Chloro-benzyl)-2-{6-[2-(3,5-dichloro-pyridin-4-yl)-acetyl]-2,3-dimethoxy-phenoxy}-acetamide] | < 1
COc1ccc(CCOc2c(C(=O)Cc3c(Cl)cncc3Cl)ccc(OC)c2OC)cc1OC [Compound 131, 2-(3,5-Dichloro-pyridin-4-yl)-1-{2-[2-(3,4-dimethoxy-phenyl)-ethoxy]-3,4-dimethoxy-phenyl}-ethanone] | < 1
COc1ccc(C(=O)Cc2c(Cl)cncc2Cl)c(OCC(=O)NCCC(C)C)c1OC [Compound 212, 2-{6-[2-(3,5-Dichloro-pyridin-4-yl)-acetyl]-2,3-dimethoxy-phenoxy}-N-(3-methyl-butyl)-acetamide] | < 1
COc1ccc(C(=O)Cc2c(Cl)cncc2Cl)c(OCC(=O)NCc2ccco2)c1OC [Compound 228, 2-{6-[2-(3,5-Dichloro-pyridin-4-yl)-acetyl]-2,3-dimethoxy-phenoxy}-N-furan-2-ylmethyl-acetamide] | < 1
COc1ccc(C(=O)Cc2c(Cl)cncc2Cl)c(OCC(=O)NCc2cccc(C)c2)c1OC [Compound 239, 2-{6-[2-(3,5-Dichloro-pyridin-4-yl)-acetyl]-2,3-dimethoxy-phenoxy}-N-(3-methyl-benzyl)-acetamide] | < 1
COc1ccc(C(=O)Cc2c(Cl)cncc2Cl)c(OCCc2ccc([S+](C)[O-])cc2)c1OC (stereo not shown) [Compound 281, 2-(3,5-Dichloro-pyridin-4-yl)-1-{2-[2-(4-methanesulfinyl-phenyl)-ethoxy]-3,4-dimethoxy-phenyl}-ethanone] | < 1
COc1ccc(C(=O)Cc2c(Cl)cncc2Cl)c(OCC(C)C)c1OC [Compound 141, 2-(3,5-Dichloro-pyridin-4-yl)-1-(2-isobutoxy-3,4-dimethoxy-phenyl)-ethanone] | < 1
COc1ccc(C(=O)Cc2c(Cl)cncc2Cl)c(OCC(=O)NCC(C)(C)C)c1OC [Compound 214] | < 1
COc1ccc(C(=O)Cc2c(Cl)cncc2Cl)c(OCC(=O)NC[C@@H](O)c2ccccc2)c1OC [Compound 253, (S)-2-{6-[2-(3,5-Dichloro-pyridin-4-yl)-acetyl]-2,3-dimethoxy-phenoxy}-N-(2-hydroxy-2-phenyl-ethyl)-acetamide] | < 1
COc1ccc(C(=O)Cc2c(Cl)cncc2Cl)c(OCC(=O)NC[C@H](O)c2ccccc2)c1OC [Compound 252, (R)-2-{6-[2-(3,5-Dichloro-pyridin-4-yl)-acetyl]-2,3-dimethoxy-phenoxy}-N-(2-hydroxy-2-phenyl-ethyl)-acetamide] | < 1
COc1ccc(C(=O)Cc2c(Cl)cncc2Cl)c(O)c1OC [Compound 101, 2-(3,5-Dichloro-pyridin-4-yl)-1-(2-hydroxy-3,4-dimethoxy-phenyl)-ethanone] | < 1
C=CCCOc1c(C(=O)Cc2c(Cl)cncc2Cl)ccc(OC)c1OC [Compound 137, 1-(2-But-3-enyloxy-3,4-dimethoxy-phenyl)-2-(3,5-dichloro-pyridin-4-yl)-ethanone] | < 1
CCCNC(=O)COc1c(C(=O)Cc2ccncc2)ccc(OC)c1OC [Compound 289, 2-(2,3-Dimethoxy-6-(2-pyridin-4-yl-acetyl)-phenoxy)-N-propyl-acetamide] | < 1
COc1ccc(CCOc2c(C(=O)Cc3c(Cl)cncc3Cl)ccc(OC)c2OC)cc1 [Compound 126, 2-(3,5-Dichloro-pyridin-4-yl)-1-{3,4-dimethoxy-2-[2-(4-methoxy-phenyl)-ethoxy]-phenyl}-ethanone] | < 1
COc1ccc(C(=O)Cc2c(Cl)cncc2Cl)c(OCC(=O)OC(C)C)c1OC [Compound 133, {6-[2-(3,5-Dichloro-pyridin-4-yl)-acetyl]-2,3-dimethoxy-phenoxy}-acetic acid isopropyl ester] | < 1
COc1ccc(C(=O)Cc2c(Cl)cncc2Cl)c(OCC(=O)NCCc2ccccn2)c1OC [Compound 236, 2-{6-[2-(3,5-Dichloro-pyridin-4-yl)-acetyl]-2,3-dimethoxy-phenoxy}-N-(2-pyridin-2-yl-ethyl)-acetamide] | < 1

SMILES | IC50 [µM]
COC(=O)c1cccc(COc2c(C(=O)Cc3c(Cl)cncc3Cl)ccc(OC)c2OC)c1 [Compound 134, 3-{6-[2-(3,5-Dichloro-pyridin-4-yl)-acetyl]-2,3-dimethoxy-phenoxymethyl}-benzoic acid methyl ester] | < 1
COc1ccc(C(=O)Cc2c(Cl)cncc2Cl)c(OCc2ccccc2C#N)c1OC [Compound 147, 2-{6-[2-(3,5-Dichloro-pyridin-4-yl)-acetyl]-2,3-dimethoxy-phenoxymethyl}-benzonitrile] | < 1
COc1ccc(C(=O)Cc2c(Cl)cncc2Cl)c(OCC(=O)NCCOCCO)c1OC [Compound 258, 2-{6-[2-(3,5-Dichloro-pyridin-4-yl)-acetyl]-2,3-dimethoxy-phenoxy}-N-[2-(2-hydroxy-ethoxy)-ethyl]-acetamide] | < 1
COc1ccc(C(=O)Cc2c(Cl)cncc2Cl)c(OCC(=O)NCCCc2ccccc2)c1OC [Compound 243, 2-{6-[2-(3,5-Dichloro-pyridin-4-yl)-acetyl]-2,3-dimethoxy-phenoxy}-N-(3-phenyl-propyl)-acetamide] | < 1
COc1ccc(C(=O)Cc2c(Cl)cncc2Cl)c(OCC(=O)NCCO)c1OC [Compound 220, 2-{6-[2-(3,5-Dichloro-pyridin-4-yl)-acetyl]-2,3-dimethoxy-phenoxy}-N-(2-hydroxy-ethyl)-acetamide] | < 1
COc1ccc(C(=O)Cc2c(Cl)cncc2Cl)c(OCC(=O)NCc2cc(F)cc(F)c2)c1OC [Compound 234, 2-{6-[2-(3,5-Dichloro-pyridin-4-yl)-acetyl]-2,3-dimethoxy-phenoxy}-N-(3,5-difluoro-benzyl)-acetamide] | < 1
CCCNC(=O)COc1c(C(=O)Cc2ccnc3ccccc23)ccc(OC)c1OC [Compound 290] | < 1
CCc1ccc(CNC(=O)COc2c(C(=O)Cc3c(Cl)cncc3Cl)ccc(OC)c2OC)cc1 [Compound 233, 2-{6-[2-(3,5-Dichloro-pyridin-4-yl)-acetyl]-2,3-dimethoxy-phenoxy}-N-(4-ethyl-benzyl)-acetamide] | < 1
COc1ccc(C(=O)Cc2c(Cl)cncc2Cl)c(OCc2ccc(Cl)s2)c1OC [Compound 121, 1-[2-(5-Chloro-thiophen-2-ylmethoxy)-3,4-dimethoxy-phenyl]-2-(3,5-dichloro-pyridin-4-yl)-ethanone] | < 1
COc1ccc(C(=O)Cc2c(Cl)cncc2Cl)c(OCC(=O)N2CCCC2)c1OC [Compound 202, 2-(3,5-Dichloro-pyridin-4-yl)-1-[3,4-dimethoxy-2-(2-oxo-2-pyrrolidin-1-yl-ethoxy)-phenyl]-ethanone] | < 1
COc1ccc(C(=O)Cc2c(Cl)cncc2Cl)c(OCC(=O)NCc2cccnc2)c1OC [Compound 230, 2-{6-[2-(3,5-Dichloro-pyridin-4-yl)-acetyl]-2,3-dimethoxy-phenoxy}-N-pyridin-3-ylmethyl-acetamide] | < 1
COc1ccc(C(=O)Cc2c(Cl)cncc2Cl)c(OCC(=O)NCCCOC(C)C)c1OC [Compound 227, 2-{6-[2-(3,5-Dichloro-pyridin-4-yl)-acetyl]-2,3-dimethoxy-phenoxy}-N-(3-isopropoxy-propyl)-acetamide] | < 1
COc1ccc(C(=O)Cc2c(Cl)cncc2Cl)c(OCCOc2ccc(Cl)cc2)c1OC [Compound 153, 1-{2-[2-(4-Chloro-phenoxy)-ethoxy]-3,4-dimethoxy-phenyl}-2-(3,5-dichloro-pyridin-4-yl)-ethanone] | < 1
COc1ccc(C(=O)Cc2c(Cl)cncc2Cl)c(OCC(=O)NCc2ccccc2)c1OC [Compound 203, N-Benzyl-2-{6-[2-(3,5-dichloro-pyridin-4-yl)-acetyl]-2,3-dimethoxy-phenoxy}-acetamide] | < 1
COc1ccc(C(=O)Cc2c(Cl)cncc2Cl)c(OCC(=O)OCc2ccccc2)c1OC [Compound 132, {6-[2-(3,5-Dichloro-pyridin-4-yl)-acetyl]-2,3-dimethoxy-phenoxy}-acetic acid benzyl ester] | < 1
COCCOc1c(C(=O)Cc2c(Cl)cncc2Cl)ccc(OC)c1OC [Compound 109, 2-(3,5-Dichloro-pyridin-4-yl)-1-[3,4-dimethoxy-2-(2-methoxy-ethoxy)-phenyl]-ethanone] | < 1
COc1ccc(C(=O)Cc2c(Cl)cncc2Cl)c(OCCc2ccncc2)c1OC [Compound 277, 2-(3,5-Dichloro-pyridin-4-yl)-1-[3,4-dimethoxy-2-(2-pyridin-4-yl-ethoxy)-phenyl]-ethanone] | < 1
COc1ccc(C(=O)Cc2c(Cl)cncc2Cl)c(OCC(=O)N(C)c2ccccc2)c1OC [Compound 206, 2-{6-[2-(3,5-Dichloro-pyridin-4-yl)-acetyl]-2,3-dimethoxy-phenoxy}-N-methyl-N-phenyl-acetamide] | < 1
